Experimental data as given in patent publication US11891365B2, “3-alkyl-4-amido-bicyclic [4,5,0] hydroxamic acids as HDAC inhibitors” (Valo Health, Inc., priority 2015, dated 2024).

The molecules below were run against T1, Full length human recombinant HDAC6 protein (Homo sapiens, UniProt Q9UBN7) (assay: In vitro histone deacetylase assay: enzymatic HDAC6 electrophoretic mobility shift assay). Conditions: 1 nM enzyme, 2 μM peptide substrate RHKK(Ac)-NH2, 25° C., 12 concentrations; read-out: Inhibitory Concentration (IC50) Values against HDAC6, Activity Range.
T1 sequence (Q9UBN7 1-1215): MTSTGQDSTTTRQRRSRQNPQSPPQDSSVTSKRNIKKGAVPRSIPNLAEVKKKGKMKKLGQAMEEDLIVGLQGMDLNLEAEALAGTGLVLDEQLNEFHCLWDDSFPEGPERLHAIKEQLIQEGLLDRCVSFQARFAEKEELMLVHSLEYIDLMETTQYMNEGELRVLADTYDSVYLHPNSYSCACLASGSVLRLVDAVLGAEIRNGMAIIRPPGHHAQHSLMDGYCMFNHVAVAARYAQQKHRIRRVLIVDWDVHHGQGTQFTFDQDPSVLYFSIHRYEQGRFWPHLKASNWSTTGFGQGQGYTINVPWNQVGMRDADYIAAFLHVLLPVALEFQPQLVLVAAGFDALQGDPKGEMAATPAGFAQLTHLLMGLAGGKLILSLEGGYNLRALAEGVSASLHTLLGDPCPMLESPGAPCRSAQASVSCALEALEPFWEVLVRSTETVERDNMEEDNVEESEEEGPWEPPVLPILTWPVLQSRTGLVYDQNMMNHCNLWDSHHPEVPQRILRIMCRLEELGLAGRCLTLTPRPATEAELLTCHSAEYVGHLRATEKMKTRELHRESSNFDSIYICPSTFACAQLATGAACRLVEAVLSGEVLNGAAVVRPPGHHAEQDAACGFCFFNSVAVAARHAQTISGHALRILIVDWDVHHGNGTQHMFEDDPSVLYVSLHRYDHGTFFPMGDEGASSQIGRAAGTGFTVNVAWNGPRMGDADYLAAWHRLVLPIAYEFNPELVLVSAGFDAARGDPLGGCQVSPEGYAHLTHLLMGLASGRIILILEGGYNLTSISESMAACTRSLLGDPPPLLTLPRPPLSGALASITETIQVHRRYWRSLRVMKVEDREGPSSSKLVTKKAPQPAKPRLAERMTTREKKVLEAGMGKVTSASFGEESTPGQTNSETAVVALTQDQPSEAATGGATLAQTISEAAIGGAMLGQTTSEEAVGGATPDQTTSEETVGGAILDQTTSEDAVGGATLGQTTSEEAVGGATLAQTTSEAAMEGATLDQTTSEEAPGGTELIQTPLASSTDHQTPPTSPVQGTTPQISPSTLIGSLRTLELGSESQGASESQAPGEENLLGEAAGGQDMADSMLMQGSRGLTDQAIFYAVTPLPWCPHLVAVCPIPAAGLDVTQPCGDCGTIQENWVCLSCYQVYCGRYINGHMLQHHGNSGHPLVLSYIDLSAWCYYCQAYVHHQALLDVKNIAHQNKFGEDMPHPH
Assay type: biochemical
Description: The enzymatic HDAC6 assay was performed using electrophoretic mobility shift assay. […] The enzymatic reactions were assembled in 384 well plates in a total volume of 25 μL in a reaction buffer composing: 100 mM HEPES, pH7.5, 25 mM KCl, 0.1% bovine serum albumin, 0.01% Triton X-100, 1% DMSO (from compounds) 2 μM of the fluorescently labeled peptide substrate and enzyme. The enzyme was added at a final concentration of 1 nM. The peptide substrate RHKK(Ac)—NH2 was used. The compounds were tested at 12 concentrations spaced by 3× dilution intervals. Negative control samples ([…] in the absence of inhibitor) and positive control samples (100%-inhibition) were assembled in replicates of four in each assay plate. The reactions were incubated at 25° C. and quenched by the addition of 45 μL of termination buffer (100 mM HEPES, pH 7.5, 0.01% Triton X-100, 0.05% SDS).
The terminated assay plates were analyzed on LabChip® 3000 microfluidic electrophoresis instrument (Perkin Elmer/Caliper Life Sciences). The fluorescence intensity of the electrophoretically separated de-acetylated product and substrate peptide was measured. Activity in each sample was determined as the product to sum ratio (PSR): P/(S+P), where P is the peak height of the product peptide and S is the peak height of the substrate peptide. Percent inhibition (Pinh) is determined using the following equation:
Pinh=(PSR0%−PSRinh)/(PSR0%−PSR100%)*100, where PSRinh is the product sum ratio in the presence of inhibitor, PSR0% is the average product sum ration in the absence of inhibitor and PSR100% is the average product sum ratio in 100%-inhibition control samples. The IC50 values of inhibitors were determined by fitting the %-inhibition curves with 4 parameter dose-response model using XLfit 4 software.

| IC50 [nM] | SMILES |
| --- | --- |
| ≤ 100 | O=C(NO)c1ccc2c(c1)OCC1(CC1)N(C(=O)C1CCOCC1)C2 [N-hydroxy-4-(tetrahydro-2H-pyran-4-carbonyl)-4,5-dihydro-2H-spiro[benzo[f][1,4]oxazepine-3,1′-cyclopropane]-8-carboxamide] |
| ≤ 100 | O=C(NO)c1ccc2c(c1)OCCN(C(=O)C1(c3ccc(C(F)(F)F)cc3)CC1)C2 [N-hydroxy-4-(1-(4-(trifluoromethyl)phenyl)cyclopropane-1-carbonyl)-2,3,4,5-tetrahydrobenzo[f][1,4]oxazepine-8-carboxamide] |
| 100 to 500 | O=C(NO)c1ccc2c(c1)OCCN(C(=O)C(OCC(F)(F)F)c1ccccc1)C2 (stereo not shown) [N-hydroxy-4-(2-phenyl-2-(2,2,2-trifluoroethoxy)acetyl)-2,3,4,5-tetrahydrobenzo[f][1,4]oxazepine-8-carboxamide] |
| ≤ 100 | COC1CCC(C(=O)N2Cc3ccc(C(=O)NO)cc3OC[C@@H]2C)CC1 (single isomer, unassigned) |
| ≤ 100 | COC(C)(C)CC(=O)N1Cc2ccc(C(=O)NO)cc2OC[C@@H]1C [(S)-N-hydroxy-4-(3-methoxy-3-methylbutanoyl)-3-methyl-2,3,4,5-tetrahydrobenzo[f][1,4]oxazepine-8-carboxamide] |
| > 500 | COc1ccccc1C(C)(C)C(=O)N1CCOc2cc(C(=O)NO)ccc2C1 [N-hydroxy-4-(2-(2-methoxyphenyl)-2-methylpropanoyl)-2,3,4,5-tetrahydrobenzo[f][1,4]oxazepine-8-carboxamide] |
| ≤ 100 | O=C(NO)c1ccc2c(c1)OCCN(C(=O)C1CCCC1)C2 [4-(cyclopentanecarbonyl)-N-hydroxy-2,3,4,5-tetrahydrobenzo[f][1,4]oxazepine-8-carboxamide] |
| > 500 | O=C(NO)c1ccc2c(c1)OCCN(C(=O)CCO)C2 [N-hydroxy-4-(3-hydroxypropanoyl)-2,3,4,5-tetrahydrobenzo[f][1,4]oxazepine-8-carboxamide] |
| ≤ 100 | CC(=O)N1CCCC(C(=O)N2CCOc3cc(C(=O)NO)ccc3C2)C1 (stereo not shown) [4-(1-acetylpiperidine-3-carbonyl)-N-hydroxy-2,3,4,5-tetrahydrobenzo[f][1,4]oxazepine-8-carboxamide] |
| ≤ 100 | C[C@H]1COc2cc(C(=O)NO)ccc2CN1C(=O)CC(C)(C)O [(S)-N-hydroxy-4-(3-hydroxy-3-methylbutanoyl)-3-methyl-2,3,4,5-tetrahydrobenzo[f][1,4]oxazepine-8-carboxamide] |
| 100 to 500 | O=C(NO)c1ccc2c(c1)OCCN(C(=O)c1cc(C(F)(F)F)cc(C(F)(F)F)c1)C2 [4-(3,5-bis(trifluoromethyl)benzoyl)-N-hydroxy-2,3,4,5-tetrahydrobenzo[f][1,4]oxazepine-8-carboxamide] |
| ≤ 100 | C[C@H]1COc2cc(C(=O)NO)ccc2CN1C(=O)C1CCCC1 [(S)-4-(cyclopentanecarbonyl)-N-hydroxy-3-methyl-2,3,4,5-tetrahydrobenzo[f][1,4]oxazepine-8-carboxamide] |
| ≤ 100 | COC[C@@H]1CN(C(=O)C2(C)CCC2)Cc2ccc(C(=O)NO)cc2O1 [(S)-N-hydroxy-2-(methoxymethyl)-4-(1-methylcyclobutane-1-carbonyl)-2,3,4,5-tetrahydrobenzo[f][1,4]oxazepine-8-carboxamide] |
| > 500 | C[C@@H]1c2ccc(C(=O)NO)cc2OCCN1C(=O)C1CCOCC1 [(R)-N-hydroxy-5-methyl-4-(tetrahydro-2H-pyran-4-carbonyl)-2,3,4,5-tetrahydrobenzo[f][1,4]oxazepine-8-carboxamide] |
| ≤ 100 | COC[C@H]1COc2cc(C(=O)NO)ccc2CN1C(=O)C1CCOCC1 [(S)-N-hydroxy-3-(methoxymethyl)-4-(tetrahydro-2H-pyran-4-carbonyl)-2,3,4,5-tetrahydrobenzo[f][1,4]oxazepine-8-carboxamide] |
| 100 to 500 | C[C@H]1COc2cc(C(=O)NO)ccc2CN1C(=O)[C@@]1(C)CCCCO1 [(S)-N-hydroxy-3-methyl-4-((R)-2-methyltetrahydro-2H-pyran-2-carbonyl)-2,3,4,5-tetrahydrobenzo[f][1,4]oxazepine-8-carboxamide] |
| ≤ 100 | C[C@H]1COc2cc(C(=O)NO)ccc2CN1C(=O)C1CCCOCC1 (stereo partly drawn) [(3S)-N-hydroxy-3-methyl-4-(oxepane-4-carbonyl)-2,3,4,5-tetrahydrobenzo[f][1,4]oxazepine-8-carboxamide] |
| ≤ 100 | O=C(NO)c1ccc2c(c1)OCCN(C(=O)C1(Cn3cccn3)CC1)C2 [4-(1-((1H-pyrazol-1-yl)methyl)cyclopropane-1-carbonyl)-N-hydroxy-2,3,4,5-tetrahydrobenzo[f][1,4]oxazepine-8-carboxamide] |
| ≤ 100 | C[C@H]1COc2cc(C(=O)NO)ccc2CN1C(=O)C1CCC(OC(F)(F)F)CC1 (single isomer, unassigned) |
| 100 to 500 | CC(C)(C(=O)N1CCOc2cc(C(=O)NO)ccc2C1)c1ccc(F)cc1 [4-(2-(4-fluorophenyl)-2-methylpropanoyl)-N-hydroxy-2,3,4,5-tetrahydrobenzo[f][1,4]oxazepine-8-carboxamide] |
| 100 to 500 | CC(C)(C)OC(=O)N1CCC2(CCCC2C(=O)N2CCOc3cc(C(=O)NO)ccc3C2)C1 (stereo not shown) [tert-butyl 6-(8-(hydroxycarbamoyl)-2,3,4,5-tetrahydrobenzo[f][1,4]oxazepine-4-carbonyl)-2-azaspiro[4.4]nonane-2-carboxylate] |
| 100 to 500 | O=C(NO)c1ccc2c(c1)O[C@H](c1ccccc1)CN(C(=O)C1CCOCC1)C2 [(R)-N-hydroxy-2-phenyl-4-(tetrahydro-2H-pyran-4-carbonyl)-2,3,4,5-tetrahydrobenzo[f][1,4]oxazepine-8-carboxamide] |
| ≤ 100 | CC1(C(=O)N2CCOc3cc(C(=O)NO)ccc3C2)CC1 [N-hydroxy-4-(1-methylcyclopropane-1-carbonyl)-2,3,4,5-tetrahydrobenzo[f][1,4]oxazepine-8-carboxamide] |
| ≤ 100 | COCC1(C(=O)N2CCOc3cc(C(=O)NO)ccc3C2)CCC1 [N-hydroxy-4-(1-(methoxymethyl)cyclobutane-1-carbonyl)-2,3,4,5-tetrahydrobenzo[f][1,4]oxazepine-8-carboxamide] |
| ≤ 100 | COC[C@H]1CN(C=O)Cc2ccc(C(=O)NO)cc2O1 [(R)-4-formyl-N-hydroxy-2-(methoxymethyl)-2,3,4,5-tetrahydrobenzo[f][1,4]oxazepine-8-carboxamide] |
| > 500 | COc1ccc(C(=O)N2CC(=O)Nc3ccc(C(=O)NO)cc3C2)cc1 [N-hydroxy-4-(4-methoxybenzoyl)-2-oxo-2,3,4,5-tetrahydro-1H-benzo[e][1,4]diazepine-7-carboxamide] |
| > 500 | CC(C(=O)N1CCOc2cc(C(=O)NO)ccc2C1)N1CCS(=O)(=O)CC1 (stereo not shown) [4-(2-(1,1-dioxidothiomorpholino)propanoyl)-N-hydroxy-2,3,4,5-tetrahydrobenzo[f][1,4]oxazepine-8-carboxamide] |
| 100 to 500 | CC(C)(C)OC(=O)N1CCC2(CC1)CC2C(=O)N1CCOc2cc(C(=O)NO)ccc2C1 (stereo not shown) [tert-butyl 1-(8-(hydroxycarbamoyl)-2,3,4,5-tetrahydrobenzo[f][1,4]oxazepine-4-carbonyl)-6-azaspiro[2.5]octane-6-carboxylate] |
